Measurements published in patent publication EP4603492A1, “SULFONAMIDE COMPOUND AND HARMFUL-ARTHROPOD-CONTROLLING COMPOSITION CONTAINING SAME” (Sumitomo Chemical Company, Limited, priority 2022, dated 2024).

How the values were obtained:
Assay type in all cases: in vivo
[1] = system: common house mosquito (Culex pipiens pallens); assay: Test method 12: final instar larvae of common house mosquito released into diluted solution; details: 24 h, read-out: control value
Method: Each test compound is formulated according to the method mentioned in Formulation Example 1 to obtain each formulation, and water is added thereto to prepare a diluted solution containing a prescribed concentration of each test compound.
Thirty final instar larvae of common house mosquito (Culex pipiens pallens) are released into the diluted solution and, after 1 day, the state of the common house mosquito larvae is examined and the mortality of insects is calculated by the following equation. [formula]
The test was carried out by making the prescribed concentration 3.5 ppm and using the following present compounds as a test compound according to the test method 12.

[2] = system: diamondback moth (Plutella xylostella); assay: Test method 4: sprayed cabbage leaves, 2nd instar larvae of diamondback moth (Formulation Example 1); details: 120 h, Test Example 4-1, spray 20 mL/seedling, after 5 days, 25°C
Method: (§1) Each test compound is formulated according to the method mentioned in Formulation Example 1 to obtain each formulation, and water containing 0.03% by volume of Shindaine (registered trademark) is added thereto to prepare a diluted solution containing a prescribed concentration of each test compound.
(§2) Each of the diluted solutions is sprayed over cabbage (Brassicae oleracea) seedlings (on the developmental stage of the second to third true leaf) planted in a container in a ratio of 20 mL/seedling. Thereafter, the stem and leaf of the seedlings are cut out, and placed in a container lined with a filter paper. Five 2nd instar larvae of diamondback moth (Plutella xylostella) are released into the container. After 5 days, the number of the surviving insects is counted, and the mortality of insects is calculated by the following equation. [formula]
The test was carried out by making the prescribed concentration 500 ppm and using the following present compounds as a test compound according to the test method 4.

[3] = system: common cutworm (Spodoptera litura); assay: Test method 3: sprayed cabbage leaves, 2nd instar larvae of common cutworm (Formulation Example 1); details: 120 h, Test Example 3-1, spray 20 mL/seedling, after 5 days, 25°C
Method: as §1
as §2, with “common cutworm (Spodoptera litura)” for “diamondback moth (Plutella xylostella)”
The test was carried out by making the prescribed concentration 500 ppm and using the following present compounds as a test compound according to the test method 3.

[4] = system: German cockroach (Blattella germanica); assay: Test method 6: coated container contact test, German cockroach male adults; details: 72 h, read-out: mortality of insects
Method: An acetone solution prepared by making the concentration of the test compound 800 ppm is poured into a 50 mL container, and the inner face of the container is uniformly coated with the test compound so as to make the coating amount of 40 mg/m^2, followed by drying.
Five German cockroach (Blattella germanica) male adults are released into the container, and the container is then covered with a lid. After the prescribed time is elapsed, the state of the German cockroach are examined. The mortality of insects is calculated by the following equation. [formula]
The test was carried out by making the prescribed elapsed time 3 days and using the following present compounds as a test compound according to the test method 6.

[5] = system: diamondback moth (Plutella xylostella); assay: Test method 10: sprayed cabbage seedlings, 3rd instar larvae of diamondback moth (Formulation Example 5); details: 120 h, spray 20 mL/seedling, after 5 days, 25°C; for mortality at 200 ppm: Test Example 10-1, 200 ppm; for mortality at 50 ppm: Test Example 10-2, 50 ppm
Method: (§3) Each test compound is formulated according to the method mentioned in Formulation Example 5 to obtain each formulation, and water containing 0.03% by volume of Shindaine (registered trademark) is added thereto to prepare a diluted solution containing a prescribed concentration of each test compound.
as §2, with “third” for “second”, “fourth” for “third”, “ten 3rd” for “the stem and leaf of the seedlings are cut out, and placed in a container lined with a filter paper. Five 2nd”
The test was carried out by making the prescribed concentration 200 ppm and using the following present compounds as a test compound according to the test method 10.
The test was carried out by making the prescribed concentration 50 ppm and using the following present compounds as a test compound according to the test method 10.

[6] = system: cotton aphids (Aphis gossypii); assay: Test method 1: spray on cucumber seedlings infested with cotton aphids (Formulation Example 1); details: 120 h, Test Example 1-1, spray 10 mL/seedling, 5 days after spraying, 25°C, read-out: control value
Method: as §1
Approximately 30 cotton aphids (Aphis gossypii) (all stages of life) are released onto cucumber (Cucumis sativus) seedlings (on the developmental stage of the second true leaf) planted in a container. After 1 day, each of the diluted solutions is sprayed over the seedlings in a ratio of 10 mL/seedling. After additional 5 days, the number of the surviving insects is examined and the control value is calculated by the following equation. Control value (%) = {1−(Cb×Tai)/(Cai×Tb)} × 100 [formula] where symbols in the equation represent the following meanings: • Cb: Number of test insects in non-treated area; • Cai: Number of surviving insects at the time of the investigation in non-treated area; • Tb: Number of test insects in treated area; and • Tai: Number of surviving insects at the time of the investigation in treated area.
Here, the "non-treated area" represents an area where the same treatment procedure as that of the treated area is carried out except for not using each test compound.
The test was carried out by making the prescribed concentration 500 ppm and using the following present compounds as a test compound according to the test method 1.

[7] = system: cotton aphids (Aphis gossypii); assay: whole plant or invertebrate; details: topical, 120 h, read-out: control value
Method: Each test compound is formulated according to the method mentioned in Formulation Example 5 to obtain each formulation, and water containing 0.03% by volume of […] (registered trademark) is added thereto to prepare a diluted solution containing a prescribed concentration of each test compound. Approximately thirty cotton aphids (Aphis gossypii) (all stages of life) are released onto cucumber (Cucumis sativus) seedlings (on the developmental stage of the second true leaf) planted in a container. After 1 day, each of the diluted solutions is sprayed over the seedlings in a ratio of 10 mL/seedling. After additional 5 days, the number of the surviving insects is examined and the control value is calculated by the following equation. Control value (%) = {1-(Cb×Tai)/(Cai×Tb)} × 100 [formula] where symbols in the equation represent the following meanings: • Cb: Number of test insects in non-treated area; • Cai: Number of surviving insects at the time of the investigation in non-treated area; • Tb: Number of test insects in treated area; and • Tai: Number of surviving insects at the time of the investigation in treated area. Here, the "non-treated area" represents an area where the same treatment procedure as that of the treated area is carried out except for not using each test compound. The test was carried out by making the prescribed concentration 200 ppm and using the following present compounds as a test compound according to the test method 11. […] The test was carried out by making the prescribed concentration 50 ppm and using the following present compounds as a test compound according to the test method 11.

[8] = system: common cutworm (Spodoptera litura); assay: Test method 9: sprayed cabbage seedlings, 3rd instar larvae of common cutworm (Formulation Example 5); details: 144 h, Test Example 9-1, spray 20 mL/seedling, after 6 days, 25°C
Method: as §3
Each of the diluted solutions is sprayed over cabbage (Brassicae oleracea) seedlings (on the developmental stage of the third to fourth true leaf) planted in a container in a ratio of 20 mL/seedling. Thereafter, ten 3rd instar larvae of common cutworm (Spodoptera litura) are released into the container. After 6 days, the number of the surviving insects is counted and the mortality of insects is calculated by the following equation. [formula]
The test was carried out by making the prescribed concentration 200 ppm and using the following present compounds as a test compound according to the test method 9.

[9] = system: houseflies (Musca domestica); assay: Test method 8: coated container contact test, adult male houseflies; details: 24 h, read-out: mortality of insects
Method: An acetone solution prepared by making the concentration of the test compound 800 ppm is poured into a 20 mL container, and the inner face of the container is uniformly coated with the test compound so as to make the coating amount of 40 mg/m^2, followed by drying.
Five adult male houseflies (Musca domestica) are released into the container, and the container is then covered with a lid. After the prescribed time is elapsed, the state of the houseflies are examined. The mortality of insects is calculated by the following equation. [formula]
The test was carried out by making the prescribed elapsed time 1 day and using the following present compounds as a test compound according to the test method 8.

[10] = system: western corn rootworm (Diabrotica virgifera virgifera); assay: whole plant or invertebrate; details: 120 h
Method: Each test compound is dissolved in 50 µL of a mixed solution of polyoxyethylene sorbitan monococoate and acetone (at a volume ratio of 5:95) per 1 mg of the test compound. Water containing 0.03% by volume of Shindaine (registered trademark) is added thereto to prepare a diluted solution containing a prescribed concentration of each test compound.
Young seedlings of corns (Zea mays) are immersed in each of the diluted solutions for 30 seconds. Thereafter, two seedlings are placed in a petri dish (diameter: 90 mm), and ten 2nd instar larvae of western corn rootworm (Diabrotica virgifera virgifera) are released into the dish. After 5 days, the number of the […] is counted, and the mortality of insects is calculated by the following equation. Mortality (%) = (1−Numberofdeadinsects/10) × 100 [formula]
The test was carried out by making the prescribed concentration 200 ppm and using the following present compounds as a test compound according to the test method 5.

Compound | mortality at 3.5 ppm [1] [%] | mortality at 500 ppm [2] [%] | mortality at 500 ppm [3] [%] | mortality at 40 mg/m2, 40 mg/m2 [4] [%] | mortality at 200 ppm [5] [%] | mortality at 50 ppm [5] [%] | mortality at 500 ppm [6] [%] | mortality at 50 ppm [7] [%] | mortality at 200 ppm [7] [%] | mortality at 200 ppm [8] [%] | mortality at 40 mg/m2, 40 mg/m2 [9] [%] | mortality at 200 ppm [10] [%]
CNS(=O)(=O)c1c(-c2cnc(OCC(F)(F)C(F)(F)F)cn2)nc2ccc(Br)cn12 [compound 1] | ≥ 90 | ≥ 80 | ≥ 80 | ≥ 80 | ≥ 80 | ≥ 80 | ≥ 90 | ≥ 90 | ≥ 90 | ≥ 80 | ≥ 80 | ≥ 80
CCNS(=O)(=O)c1c(-c2cnc(OCC(F)(F)C(F)(F)F)cn2)nc2ccc(Br)cn12 [compound 2] | ≥ 90 | ≥ 80 | ≥ 80 | ≥ 80 | ≥ 80 | ≥ 80 | ≥ 90 | ≥ 90 | ≥ 90 | ≥ 80 | ≥ 80 | ≥ 80
CN(C)S(=O)(=O)c1c(-c2ccc(OCC(F)(F)C(F)F)nn2)nc2ccc(I)cn12 [compound 4] | – | ≥ 80 | ≥ 80 | – | ≥ 80 | ≥ 80 | ≥ 90 | – | – | ≥ 80 | – | –
CNS(=O)(=O)c1c(-c2ccc(OCC(F)(F)C(F)F)nn2)nc2ccc(I)cn12 [compound 3] | – | ≥ 80 | ≥ 80 | – | ≥ 80 | ≥ 80 | ≥ 90 | ≥ 90 | ≥ 90 | ≥ 80 | – | ≥ 80
